Measurements published in patent US12582688B2, “Compositions for the treatment of hypopigmentation” (University of Pretoria, priority 2021, dated 2026).
Where no end group is shown, it is not given here.

How the values were obtained:
[1] = tested on: B16-F10 mouse melanocytes; assay: Melanin production (intracellular and extracellular) in B16-F10 mouse melanocytes; assay type: cell-based; conditions: B16F10 cells, 72 hours; A. linearis at 500 μg/ml (highest concentration tested)
Experimental: Cultured B16F10 mouse melanocytes (passage number 6) were trypsinized (0.25% trypsin and 0.1% EDTA at 37° C. for 5-10 min). Cells (2×10^4 cells/well in 1.9 ml of MEM) were inoculated into 24-well plates using a pipette (FALCON 353046, Becton Dickinson Labware, NJ, U.S.A.), and incubated for 24 hours at 37° C. in the CO2 incubator. After 24-hour incubation, 100 μl of each sample solution was added to each well in duplicate, and the 24-well plate was incubated for 72 hours at 37° C. in the CO2 incubator. […] A 0.5% DMSO concentration was used as a negative control. After incubation, the cultured medium was removed, and assayed for extracellular melanin. The cultured medium was centrifuged (900 g, 20 min at 4° C.) to give a supernatant. One millilitre of a mixture of 0.4 M HEPES buffer (pH 6.8) and EtOH (9:1, v/v) was added to 1 ml of the supernatant was separated. The OD at 475 nm of the resulting solution was measured, and the amount of extracellular melanin was determined. The remaining melanocytes were digested by the addition of […] of CMF-D-PBS and trypsinized (0.25% trypsin and 0.1% EDTA at 37° C. for 5 to 10 min), and then incubated for 16 hours at room temperature. Spectrophotometric analysis of the amount of intracellular melanin was then performed at 475 nm.

[2] = tested on: Primary human melanocytes and primary human keratinocytes; assay: Melanin transfer in melanocyte/keratinocyte co-culture, immunofluorescence; assay type: cell-based; conditions: NHM/NHK co-culture, 24 hours
Experimental: Primary human melanocytes and primary human keratinocytes were cultured in normal Dulbecco's Modified Eagle's Medium (DMEM) containing melanocyte and keratinocyte growth factors respectively. Melanocytes (2.5×10^3 cells/well) were seeded on gelatine treated round coverslips in 24 well plates and were incubated at 37° C. for 72 hours. After the 72 hours the melanocyte medium was removed and medium (with a higher Ca concentration and keratinocyte growth factors) containing the keratinocytes (25×10^3 cells/well) was added to each well. The co-culture was incubated overnight to ensure that the keratinocytes attached. […] After 24 hours the treated cells and untreated cells were analysed with immunofluorescence ([…], et al., 2008). The 24-hour co-cultured cells were washed with PBS and fixed with MeOH (added at a temperature of -20° C.) and incubated for 4 minutes at -20° C. The fixed cells were washed with PBS to remove all the MeOH and incubated for 1 hour at room temperature with goat serum (0.5% in PBS) to remove effects of background noise. […] The washed coverslips were transferred to microscope slides containing mounting media and stored covered at 4° C., until analysed using the fluorescent microscope. The statistical significance in the melanin transfer results obtained for the different treatments, was determined with a student's T-test. […]

Cn1c(=O)c2[nH]cnc2n(C)c1=O [theophylline]
additional melanin extracellularly [1]: 19 µg/mL
additional melanin intracellularly [1]: 21 µg/mL
additional melanin produced than in the untreated cells (total) [1]: 40 µg/mL

alpha melanocyte stimulating hormone (SYSMEHFRWGKPV; ends and bridges not checked; UniProt P01189 138-150, looked up) [α-MSH, positive control for melanin transfer]
melanocyte dendricity and melanosomes in the dendrite tips [2]: increase in the fluorescence in the tip of the dendrites
melanosomes around the keratinocyte nuclei (positive keratinocytes) ([2]; versus untreated cells): higher presence of melanosomes around the keratinocyte nuclei
